The numbers were not newly measured in patent publication US20090156634A1, “Tropane alkaloids and trigonelline combinations and methods for administering the same” (priority 2007, published 2009), which cites them from elsewhere.

Counter-ions that a name gives are not always drawn.

The test system of series [1] is diaphragm. To be noted: rats, low-dose.
The test system of series [2] is rat cultured sensory neurons. The settings on record: attributed to inhibition of potassium channels.
In series [3] the test system is central nervous system. The settings on record: orally administered to rats.
For series [4], the system named is dendrites and axons. The settings on record: mice models of Alzheimer's disease.

`NCCc1ccc(O)c(O)c1` [dopamine]: in series [1], the “effect on diaphragm fatigue” value was “can prevent and/or reverse diaphragm fatigue”.

With `C[n+]1cccc(C(=O)[O-])c1` [trigonelline, 3-carboxy-1-methyl-pyridinum inner salt], the “excitability of the rat dorsal gangliae” value in series [2] was “increases the excitability”. In series [3], the “central nervous system effect” value was “central nervous system stimulating effects”. For the same compound, the “effect on dendrites and axons” value in series [4] is “induce regenerative effects in dendrites and axons”.
